The text below walks through data of US12338237B2, “Derivatives having 1,2,3,4-tetrahydronaphthalene moiety or pharmaceutically acceptable salt thereof and pharmaceutical compositions comprising the same” (YUHAN CORPORATION, priority 2019, dated 2025).

SMILES strings stand for the structures. pIC50: −log10 of the molar value. Where two headings read alike, the source gives them in different places.

Test [1] concerns the target glucosylceramide synthase (GCS) (Homo sapiens (Human), UniProt Q16739). Briefly: Evaluation of inhibitory activities against GCS (enzyme reaction with A549 cell lysate, NBD C6-ceramide, HPLC fluorescence). The format is biochemical. The following applies: GCS activity in A549 cell lysate, 37° C. for 90 minutes. As to the method: Ibiglustat, known as a GCS inhibitor, was used as a control.
After the cells attached to the culture dish were washed with phosphate buffered saline (PBS), the cells were scraped off with a cell scraper and then centrifuged (4000 rpm, 3 min, 4° C.) to collect the cells in a 50 ml tube. The cell pellets were suspended in a lysis buffer (50 mM HEPES, pH 7.3, containing 1× the protease/phosphatase inhibitor cocktail), lysed by sonication, and then the lysate was centrifuged (13000 rpm, 10 min, 4° C.). The obtained supernatant was used for the quantitative analysis of proteins. The amount of proteins was measured using the BCA protein assay kit, using bovine serum albumin as a standard.
Enzymatic reactions were initiated by sequentially adding the following reaction materials to a 96 deep-well plate. Thereafter, the enzymatic reactions were performed at 37° C. for 90 minutes.
The enzymatic reactions were stopped by adding 100 μl of chloroform/methanol (2:1, v/v). After vortexing for 15 seconds, each mixture was centrifuged (4000 rpm, 10 min, 18° C.). The lower layer (50 μl) was transferred to a new 96 deep-well plate and dried with a reduced concentrator.
Data analysis was performed by the following equations. % Area (Sample)=Area (GlcCer)/[Area (Cer)+Area (GlcCer)]×100 % GCS activity=[Area(Sample)−Area(ibiglustat)]/[Area(DMSO)−Area(ibiglustat)]×100

For test [2], the system named is GM1 production. Briefly: cells. The format is cell-based.

Chain of glucosylceramide synthase (GCS) (Q16739 whole entry, looked up): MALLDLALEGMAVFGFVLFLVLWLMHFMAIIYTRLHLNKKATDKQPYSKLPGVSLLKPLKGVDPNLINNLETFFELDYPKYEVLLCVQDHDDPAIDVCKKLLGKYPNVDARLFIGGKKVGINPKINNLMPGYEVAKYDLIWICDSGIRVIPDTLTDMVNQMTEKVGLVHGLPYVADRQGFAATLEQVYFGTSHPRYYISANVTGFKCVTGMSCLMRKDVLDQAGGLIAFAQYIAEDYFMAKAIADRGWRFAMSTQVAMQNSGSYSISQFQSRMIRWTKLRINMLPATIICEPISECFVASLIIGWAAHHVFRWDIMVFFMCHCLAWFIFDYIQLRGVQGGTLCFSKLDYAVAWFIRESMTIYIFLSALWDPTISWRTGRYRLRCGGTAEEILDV

Take `O=C(NC1CCCc2cc(-c3ccc(F)cc3)ccc21)O[C@@H]1CN2CCC1CC2` (stereo partly drawn) [Example 1, (S)-quinuclidin-3-yl (6-(4-fluorophenyl)-1,2,3,4-tetrahydronaphthalen-1-yl)carbamate]: the pIC50 was 8.17 in test [1] and 7.20 in test [2] (Homo sapiens, Jurkat, 72 h).

For the molecule `O=C(NC1CCCc2cc(-c3ccc(Cl)cc3)ccc21)O[C@@H]1CN2CCC1CC2` (stereo partly drawn) [Example 2, (S)-quinuclidin-3-yl (6-(4-chlorophenyl)-1,2,3,4-tetrahydronaphthalen-1-yl)carbamate], the pIC50 in test [1] is 8.52; in test [2] (Homo sapiens, Jurkat, 72 h) it was 7.26.

Regarding `O=C(NC1CCCc2cc(-c3ccc(C(F)(F)F)cc3)ccc21)O[C@@H]1CN2CCC1CC2` (stereo partly drawn) [Example 3, (S)-quinuclidin-3-yl (6-(4-(trifluoromethyl)phenyl)-1,2,3,4-tetrahydronaphthalen-1-yl)carbamate], the negative-log IC50 (pIC50) in test [1] was 8.64; in test [2] (Homo sapiens, Jurkat, 72 h), 7.23.

On to `O=C(NC1CCCc2cc(-c3ccc(OC(F)(F)F)cc3)ccc21)O[C@@H]1CN2CCC1CC2` (stereo partly drawn) [Example 4, (S)-quinuclidin-3-yl (6-(4-(trifluoromethoxy)phenyl)-1,2,3,4-tetrahydronaphthalen-1-yl)carbamate], for which the pIC50 was 8.85 in test [1] and 7.46 in test [2] (Homo sapiens, Jurkat, 72 h).

Consider `O=C(NC1CCCc2cc(-c3cccc(F)c3)ccc21)O[C@@H]1CN2CCC1CC2` (stereo partly drawn) [Example 5, (S)-quinuclidin-3-yl (6-(3-fluorophenyl)-1,2,3,4-tetrahydronaphthalen-1-yl)carbamate], for which the pIC50 was 9.00 in test [1] and 7.57 in test [2] (Homo sapiens, Jurkat, 72 h).

Regarding `O=C(NC1CCCc2cc(-c3cccc(Cl)c3)ccc21)O[C@@H]1CN2CCC1CC2` (stereo partly drawn) [Example 6, (S)-quinuclidin-3-yl (6-(3-chlorophenyl)-1,2,3,4-tetrahydronaphthalen-1-yl)carbamate], the pIC50 in test [1] was 9.16; in test [2] (Homo sapiens, Jurkat, 72 h), 7.80.

On to `O=C(NC1CCCc2cc(-c3cccc(C(F)(F)F)c3)ccc21)O[C@@H]1CN2CCC1CC2` (stereo partly drawn) [Example 7, (S)-quinuclidin-3-yl (6-(3-(trifluoromethyl)phenyl)-1,2,3,4-tetrahydronaphthalen-1-yl)carbamate], for which the pIC50 is 8.77 in test [1] and 7.87 in test [2] (Homo sapiens, Jurkat, 72 h).

For `O=C(NC1CCCc2cc(-c3cccc(OC(F)(F)F)c3)ccc21)O[C@@H]1CN2CCC1CC2` (stereo partly drawn) [Example 8, (S)-quinuclidin-3-yl (6-(3-(trifluoromethoxy)phenyl)-1,2,3,4-tetrahydronaphthalen-1-yl)carbamate], the pIC50 is 8.68 in test [1] and 7.91 in test [2] (Homo sapiens, Jurkat, 72 h).

`O=C(NC1CCCc2cc(-c3ccccc3F)ccc21)O[C@@H]1CN2CCC1CC2` (stereo partly drawn) [Example 9, (S)-quinuclidin-3-yl (6-(2-fluorophenyl)-1,2,3,4-tetrahydronaphthalen-1-yl)carbamate]: the negative-log IC50 (pIC50) in test [1] was 8.58; in test [2] (Homo sapiens, Jurkat, 72 h), 7.38.

Take `O=C(NC1CCCc2cc(-c3ccccc3Cl)ccc21)O[C@@H]1CN2CCC1CC2` (stereo partly drawn) [Example 10, (S)-quinuclidin-3-yl (6-(2-chlorophenyl)-1,2,3,4-tetrahydronaphthalen-1-yl)carbamate]: the pIC50 was 8.59 in test [1] and 7.42 in test [2] (Homo sapiens, Jurkat, 72 h).

For the molecule `O=C(NC1CCCc2cc(-c3ccccc3C(F)(F)F)ccc21)O[C@@H]1CN2CCC1CC2` (stereo partly drawn) [Example 11, (S)-quinuclidin-3-yl (6-(2-(trifluoromethyl)phenyl)-1,2,3,4-tetrahydronaphthalen-1-yl)carbamate], the pIC50 in test [1] was 8.09; in test [2] (Homo sapiens, Jurkat, 72 h), 7.42.

Turning to `O=C(NC1CCCc2cc(-c3ccccc3OC(F)(F)F)ccc21)O[C@@H]1CN2CCC1CC2` (stereo partly drawn) [Example 12, (S)-quinuclidin-3-yl (6-(2-(trifluoromethoxy)phenyl)-1,2,3,4-tetrahydronaphthalen-1-yl)carbamate], the pIC50 in test [1] was 8.03; in test [2] (Homo sapiens, Jurkat, 72 h), 7.71.

Consider `O=C(NC1CCCc2cc(-c3ccc(OC(F)F)cc3)ccc21)O[C@@H]1CN2CCC1CC2` (stereo partly drawn) [Example 13, (S)-quinuclidin-3-yl (6-(4-(difluoromethoxy)phenyl)-1,2,3,4-tetrahydronaphthalen-1-yl)carbamate], for which the pIC50 in test [1] is 7.63; in test [2] (Homo sapiens, Jurkat, 72 h), 6.84.

Regarding `Cc1ccc(-c2ccc3c(c2)CCCC3NC(=O)O[C@@H]2CN3CCC2CC3)cc1` (stereo partly drawn) [Example 14, (S)-quinuclidin-3-yl (6-(p-tolyl)-1,2,3,4-tetrahydronaphthalen-1-yl)carbamate], the pIC50 in test [1] was 8.06; in test [2] (Homo sapiens, Jurkat, 72 h) it was 7.21.

Regarding `O=C(NC1CCCc2cc(-c3ccc(F)c(F)c3)ccc21)O[C@@H]1CN2CCC1CC2` (stereo partly drawn) [Example 15, (S)-quinuclidin-3-yl (6-(3,4-difluorophenyl)-1,2,3,4-tetrahydronaphthalen-1-yl)carbamate], the negative logarithm of the IC50 (pIC50) in test [1] is 8.16; in test [2] (Homo sapiens, Jurkat, 72 h) it was 7.71.

Regarding `O=C(NC1CCCc2cc(-c3cc(F)ccc3F)ccc21)O[C@@H]1CN2CCC1CC2` (stereo partly drawn) [Example 16, (S)-quinuclidin-3-yl (6-(2,5-difluorophenyl)-1,2,3,4-tetrahydronaphthalen-1-yl)carbamate], the negative logarithm of the IC50 (pIC50) in test [1] was 8.40; in test [2] (Homo sapiens, Jurkat, 72 h) it was 7.47.

Regarding `O=C(NC1CCCc2cc(-c3cc(F)cc(F)c3)ccc21)O[C@@H]1CN2CCC1CC2` (stereo partly drawn) [Example 17, (S)-quinuclidin-3-yl (6-(3,5-difluorophenyl)-1,2,3,4-tetrahydronaphthalen-1-yl)carbamate], the pIC50 is 8.24 in test [1] and 7.43 in test [2] (Homo sapiens, Jurkat, 72 h).

As to `O=C(NC1CCCc2cc(-c3ccc(F)cc3F)ccc21)O[C@@H]1CN2CCC1CC2` (stereo partly drawn) [Example 18, (S)-quinuclidin-3-yl (6-(2,4-difluorophenyl)-1,2,3,4-tetrahydronaphthalen-1-yl)carbamate], the pIC50 was 8.27 in test [1] and 7.00 in test [2] (Homo sapiens, Jurkat, 72 h).

For the molecule `O=C(NC1CCCc2cc(-c3cccc(F)c3F)ccc21)O[C@@H]1CN2CCC1CC2` (stereo partly drawn) [Example 19, (S)-quinuclidin-3-yl (6-(2,3-difluorophenyl)-1,2,3,4-tetrahydronaphthalen-1-yl)carbamate], the negative logarithm of the IC50 (pIC50) in test [1] is 8.46; in test [2] (Homo sapiens, Jurkat, 72 h), 7.17.

Take `O=C(NC1CCCc2cc(-c3ccc(F)c(F)c3F)ccc21)O[C@@H]1CN2CCC1CC2` (stereo partly drawn) [Example 20, (S)-quinuclidin-3-yl (6-(2,3,4-trifluorophenyl)-1,2,3,4-tetrahydronaphthalen-1-yl)carbamate]: the negative-log IC50 (pIC50) in test [1] was 8.15; in test [2] (Homo sapiens, Jurkat, 72 h), 7.07.

`O=C(NC1CCCc2cc(-c3cc(F)c(F)cc3F)ccc21)O[C@@H]1CN2CCC1CC2` (stereo partly drawn) [Example 21, (S)-quinuclidin-3-yl (6-(2,4,5-trifluorophenyl)-1,2,3,4-tetrahydronaphthalen-1-yl)carbamate]: the pIC50 was 8.60 in test [1] and 7.38 in test [2] (Homo sapiens, Jurkat, 72 h).

On to `O=C(NC1CCCc2cc(-c3ccc(Cl)c(Cl)c3)ccc21)O[C@@H]1CN2CCC1CC2` (stereo partly drawn) [Example 22, (S)-quinuclidin-3-yl (6-(3,4-dichlorophenyl)-1,2,3,4-tetrahydronaphthalen-1-yl)carbamate], for which the pIC50 in test [1] was 8.07; in test [2] (Homo sapiens, Jurkat, 72 h), 7.65.

Regarding `O=C(NC1CCCc2cc(-c3cc(Cl)ccc3Cl)ccc21)O[C@@H]1CN2CCC1CC2` (stereo partly drawn) [Example 23, (S)-quinuclidin-3-yl (6-(2,5-dichlorophenyl)-1,2,3,4-tetrahydronaphthalen-1-yl)carbamate], the pIC50 in test [1] was 8.74; in test [2] (Homo sapiens, Jurkat, 72 h), 7.56.

As for `O=C(NC1CCCc2cc(-c3cc(Cl)cc(Cl)c3)ccc21)O[C@@H]1CN2CCC1CC2` (stereo partly drawn) [Example 24, (S)-quinuclidin-3-yl (6-(3,5-dichlorophenyl)-1,2,3,4-tetrahydronaphthalen-1-yl)carbamate], the negative logarithm of the IC50 (pIC50) is 8.04 in test [1] and 7.64 in test [2] (Homo sapiens, Jurkat, 72 h).

As for `COCCOc1ccc(-c2ccc3c(c2)CCCC3NC(=O)O[C@@H]2CN3CCC2CC3)cc1` (stereo partly drawn) [Example 25, (S)-quinuclidin-3-yl (6-(4-(2-methoxyethoxy)phenyl)-1,2,3,4-tetrahydronaphthalen-1-yl)carbamate], the pIC50 in test [1] was 7.82; in test [2] (Homo sapiens, Jurkat, 72 h) it was 7.35.

With `COCOc1ccc(-c2ccc3c(c2)CCCC3NC(=O)O[C@@H]2CN3CCC2CC3)cc1` (stereo partly drawn) [Example 26, (S)-quinuclidin-3-yl (6-(4-(methoxymethoxy)phenyl)-1,2,3,4-tetrahydronaphthalen-1-yl)carbamate], the pIC50 in test [1] was 8.18; in test [2] (Homo sapiens, Jurkat, 72 h), 7.51.

As to `COCCOc1cccc(-c2ccc3c(c2)CCCC3NC(=O)O[C@@H]2CN3CCC2CC3)c1` (stereo partly drawn) [Example 27, (S)-quinuclidin-3-yl (6-(3-(2-methoxyethoxy)phenyl)-1,2,3,4-tetrahydronaphthalen-1-yl)carbamate], the negative logarithm of the IC50 (pIC50) was 8.60 in test [1] and 7.52 in test [2] (Homo sapiens, Jurkat, 72 h).

As to `O=C(NC1CCCc2ccc(-c3cccc(C(F)(F)F)c3)cc21)O[C@@H]1CN2CCC1CC2` (stereo partly drawn) [Example 60, (S)-quinuclidin-3-yl (7-(3-(trifluoromethyl)phenyl)-1,2,3,4-tetrahydronaphthalen-1-yl)carbamate], the pIC50 in test [1] was 6.97.

With `CC1(C)CCc2cc(-c3cccc(F)c3F)ccc2C1NC(=O)O[C@@H]1CN2CCC1CC2` (stereo partly drawn) [Example 102, (S)-quinuclidin-3-yl (6-(2,3-difluorophenyl)-2,2-dimethyl-1,2,3,4-tetrahydronaphthalen-1-yl)carbamate], in test [2] (read-out: IC50), the pIC50 was 8.84.

One may read the pIC50 as −log10 of the IC50, conventionally taken in molar units.
